Reference: patent publication US5607926A, “Cephalosporin antibiotics” (Microcide Pharmaceuticals, Inc., priority 1995, dated 1997)
Values after ≈ are worked out from the molar mass of the structure shown. Read-outs that look alike come from different tables or passages of the source.

Columns and labels:
[1] = tested on: S. aureus Col8A (Meth^S)(lac^-); assay: In vitro antibacterial evaluation, MIC by agar dilution, S. aureus Col8A; type: cell-based; conditions: Staphylococcus aureus
In short: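 Agar dilution per NCCLS (1991): two-fold dilutions from 128 μg/mL down to ≤0.25 μg/mL in Mueller-Hinton agar, each level in duplicate. Spots of about 10^4 cfu of log-phase culture; 16-20 h at 35°-36° C. MIC in μg/ml is the lowest concentration inhibiting growth.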

E. coli ATCC 25922 = assay: In vitro antibacterial evaluation, MIC by agar dilution, E. coli ATCC 25922; type: cell-based; conditions: Escherichia coli, ATCC25922, read-out: MIC
In short: (§1)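 Two-fold dilutions of test compound, 128 μg/mL down to ≤0.25 μg/mL, were set in Mueller-Hinton agar in duplicate and spot-inoculated with about 10^4 cfu of log-phase culture. Plates were incubated 16-20 hours at 35°-36° C, and MIC taken as the lowest concentration inhibiting growth, following NCCLS agar dilution.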

S. aureus ATCC 29213 = assay: In vitro antibacterial evaluation, MIC by agar dilution, S. aureus ATCC 29213; type: cell-based; conditions: Staphylococcus aureus, ATCC29213
In short: as §1

[2] = tested on: S. epidermidis ATCC 31432; assay: In vitro antibacterial evaluation, MIC by agar dilution, S. epidermidis ATCC 31432; type: cell-based; conditions: Staphylococcus epidermidis, ATCC31432
In short: as §1

E. faecium ATCC 35667 = assay: In vitro antibacterial evaluation, MIC by agar dilution, E. faecium ATCC 35667; type: cell-based; conditions: Enterococcus faecium, ATCC35667, read-out: MIC
In short: as §1

S. aureus ATCC 25923 = assay: In vitro antibacterial evaluation, MIC by agar dilution, S. aureus ATCC 25923; type: cell-based; conditions: Staphylococcus aureus, ATCC25923
In short: as §1

E. faecalis ATCC 29212 = assay: In vitro antibacterial evaluation, MIC by agar dilution, E. faecalis ATCC 29212; type: cell-based; conditions: Enterococcus faecalis, ATCC29212; E. faecalis ATCC 29212; read-out: MIC
In short: as §1

[3] = tested on: X. maltophilia ATCC 13637; assay: In vitro antibacterial evaluation, MIC by agar dilution, X. maltophilia ATCC 13637; type: cell-based; conditions: Stenotrophomonas maltophilia, ATCC13637
Procedure: (§2) The compounds of the invention were evaluated against several β-lactamresistant bacteria strains by determining the minimum inhibitory concentration (MIC, μg/ml) of each compound with respect to each strain. The MIC, the lowest concentration of antibiotic which inhibits growth of the test organism, was determined by the agar dilution method.
(§3) To determine the MIC for bacterial isolates, the test compound was incorporated in a series of two-fold dilutions into liquified Mueller-Hinton agar. Upon solidification, a number of different bacterial strains were spot inoculated with a replicating device onto the agar surface. […] The procedures used in these studies have been standardized by the National Committee for Clinical Laboratory Standards (NCCLS), as per the NCCLS publication entitled METHODS FOR DILUTION ANTIMICROBIAL SUSCEPTIBILITY TESTS (1991), which is incorporated herein by reference.
(§4) Aliquots of antimicrobial agents were prepared in phosphate buffered saline (PBS) at pH 7.2. Tween 20 or DMSO was used as a solubilizing vehicle as needed. Standard methods of vortexing, sonicating and gentle heat were used to facilitate solubilizing the test agent. Typically, the concentration of the stock solution was 10× that of the highest drug concentration tested. A 1.28 mg/mL stock solution was used with a subsequent highest working concentration of 128 μg/mL. Serial two-fold dilutions were done through ≤0.25 μg/mL. Each drug level was tested in duplicate. Two-fold drug dilutions were done in sterile 50 mL tubes with a final drug volume of 5 mL. Upon the addition of 45 mL of molten agar, a 10-fold dilution resulted. Two, 25 mL. plates were then poured into 15×150 mm square Petri plates with grids and allowed to harden.
(§5) A control plate with a reference drug, either cefotaxime, vancomycin or imipenem, was used as the positive growth control. Stock concentrations of reference antibiotics were prepared and frozen at -80° C. Upon preparation, the control plates were sealed and stored in the refrigerator for up to 1 week prior to use; however, imipenem control plates had to be prepared just prior to use. All test plates were used within 24 hours of preparation.
(§6) Satisfactory results were obtained where the inoculum contained about 10^4 colony forming units (cfu) ±0.5 logs. Starting with pure cultures of the test isolates on agar plates, a few isolated colonies were transferred to a tube of nutrient broth and allowed to grow 4-6 hours at 35°-36° C. to reach log-phase growth. Dropwise addition of the broth culture to PBS was done to match a 0.5 McFarland turbidity standard equal to 10^8 cfu/mL. This was further diluted ten-fold in PBS to reach a working inoculum concentration of 10^7 cfu/mL. When 1 μL of the working inoculum was applied to the agar surface a concentration of about 10^4 cfu per spot was obtained.
(§7) Disposable sterile 1 μL loops were used to inoculate test plates, with each isolate in a designated grid on the agar plate. An alternate method of inoculation involved the use of a replica plater, a device with 48 steel pins allowing the simultaneous inoculation of multiple isolates. After the spots had dried, the plates were incubated at 35°-36° C. for 16-20 hours. Endpoints were assessed as the minimum inhibitory concentration (MIC) of antimicrobial agent.

[4] = tested on: S. aureus 76 (Meth^R)(lac^+); assay: In vitro antibacterial evaluation, MIC by agar dilution, S. aureus 76; type: cell-based; conditions: Staphylococcus aureus, read-out: MIC
In short: as §1

P. aeruginosa ATCC 27853 = assay: In vitro antibacterial evaluation, MIC by agar dilution, P. aeruginosa ATCC 27853; type: cell-based; conditions: Pseudomonas aeruginosa, ATCC27853, read-out: MIC
In short: as §1

S. haemolyticus (Meth^R) = assay: In vitro antibacterial evaluation, MIC by agar dilution, S. haemolyticus; type: cell-based; conditions: Staphylococcus haemolyticus, read-out: MIC
In short: as §1

[5] = tested on: methicillinsusceptible S. aureus strain ATCC 13709; assay: Challenge strain MIC; type: cell-based; conditions: Staphylococcus aureus, ATCC13709, S. aureus ATCC 13709; read-out: Challenge str MIC
Procedure: as §2, §3, §4, §5, §6, §7
data reported for challenge with methicillinsusceptible S. aureus strain

[6] = tested on: methicillinsusceptible S. aureus strain ATCC 13709; assay: In vivo antibacterial evaluation, murine model for lethal bacteremic peritonitis; parameters: species or system S. aureus in female Swiss-Webster mice; conditions: Staphylococcus aureus, ATCC13709, sc, 72 h, two equal SC doses at challenge and 2 hours later, mice, probit, read-out: ED50
In short: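 Female Swiss-Webster mice received IP an LD100 bacterial titer in 7% hog gastric mucin, then two equal subcutaneous doses (at challenge and 2 h later) of two-fold increments of drug, range 0.01–512 mg/kg. Survival scored at 72 h; PD50 (total mg/kg) by probit, groups of 10.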

[7] = S. aureus ATCC 29213, read-out: MIC
[8] = S. epidermidis ATCC 31432, read-out: MIC
[9] = S. aureus ATCC 25923, read-out: MIC

Structure (SMILES) | MIC [1] [µg/mL] | MIC (E. coli ATCC 25922) [µg/mL] | MIC (S. aureus ATCC 29213; [7]) [µg/mL] | MIC [2, 8] [µg/mL] | MIC (E. faecium ATCC 35667) [µg/mL] | MIC (S. aureus ATCC 25923; [9]) [µg/mL] | MIC (E. faecalis ATCC 29212) [µg/mL] | MIC [3] [µg/mL] | MIC [4] [µg/mL] | MIC (P. aeruginosa ATCC 27853) [µg/mL] | MIC (S. haemolyticus (Meth^R)) [µg/mL] | MIC [2] [µg/mL] | MIC (S. aureus ATCC 25923) [µg/mL] | MIC (S. aureus ATCC 29213) [µg/mL] | MIC [5] [µg/mL] | ED50 [6] [mg/kg]
O=C(Cc1ccccc1)N[C@@H]1C(=O)N2C(C(=O)O)=C(Sc3ccc(F)cc3)CS[C@H]12 [Cmpd 1, (7R)-7-[(Phenylacetyl)amino]-3-(p-fluorophenylthio)-3-cephem-4-carboxylic acid] | 0.03 (≈ 0.0675 µM) | > 32 | 0.03 (≈ 0.0675 µM) | < 0.015 | 8 (≈ 18 µM) | < 0.015 | 2 (≈ 4.5 µM) | > 32 | 32 (≈ 72 µM) | > 32 | > 32 |  |  |  |  | 
O=C(Cc1ccccc1)N[C@@H]1C(=O)N2C(C(=O)O)=C(Sc3cccc(I)c3)CS[C@H]12 [Cmpd 2, (7R)-7-[(Phenylacetyl)amino]-3-(m-iodophenylthio)-3-cephem-4-carboxylic acid] | 0.03 (≈ 0.0543 µM) | > 32 | 0.03 (≈ 0.0543 µM) | < 0.015 | 2 (≈ 3.62 µM) | < 0.015 | 2 (≈ 3.62 µM) | > 32 | 16 (≈ 29 µM) | > 32 | 16 (≈ 29 µM) |  |  |  |  | 
O=C(Cc1ccccc1)N[C@@H]1C(=O)N2C(C(=O)O)=C(Sc3ccc(Cl)cc3)CS[C@H]12 [Cmpd 3, (7R)-7-[(Phenylacetyl)amino]-3-(p-chlorophenylthio)-3-cephem-4-carboxylic acid] | 0.015 (≈ 0.0325 µM) | > 32 | 0.03 (≈ 0.0651 µM) |  | 4 (≈ 8.68 µM) |  | 2 (≈ 4.34 µM) | > 32 | 16 (≈ 34.7 µM) | > 32 | 16 (≈ 34.7 µM) | < 0.015 | < 0.015 |  |  | 
O=C(Cc1ccccc1)N[C@@H]1C(=O)N2C(C(=O)O)=C(Sc3ccccc3Br)CS[C@H]12 [Cmpd 4, (7R)-7-[(Phenylacetyl)amino]-3-(o-bromophenylthio)-3-cephem-4-carboxylic acid] | < 0.06 | > 32 | 0.125 (≈ 0.247 µM) | < 0.06 | 2 (≈ 3.96 µM) | < 0.06 | 4 (≈ 7.91 µM) | > 32 | 4 (≈ 7.91 µM) | > 32 | 16 (≈ 31.7 µM) |  |  |  |  | 
O=C(Cc1ccccc1)N[C@@H]1C(=O)N2C(C(=O)O)=C(Sc3ccc4c(c3)oc3ccccc34)CS[C@H]12 [Cmpd 7, (7R)-7-[(Phenylacetyl)amino]-3-(dibenzofuranyl-3-thio)-3-cephem-4-carboxylic acid] | 0.06 (≈ 0.116 µM) | > 32 | < 0.06 | < 0.06 |  | < 0.06 | 1 (≈ 1.94 µM) | > 32 | 16 (≈ 31 µM) | > 32 |  |  |  |  |  | 
O=C(Cc1ccccc1)N[C@@H]1C(=O)N2C(C(=O)O)=C(Sc3ccc(-c4ccccc4)cc3)CS[C@H]12 [Cmpd 8, (7R)-7-[(Phenylacetyl)amino]-3-(4-biphenylthio)-3-cephem-4-carboxylic acid] | < 0.125 | > 32 |  |  |  |  | 4 (≈ 7.96 µM) | > 32 | > 32 | > 32 |  | < 0.125 | < 0.125 | < 0.125 |  | 
O=C(Cc1ccccc1)N[C@@H]1C(=O)N2C(C(=O)O)=C(Sc3cccc(-c4ccccc4)c3)CS[C@H]12 [Cmpd 10, (7R)-7-[(Phenylacetyl)amino]-3-(3-biphenylthio)-3-cephem-4-carboxylic acid] | 0.125 (≈ 0.249 µM) | > 32 |  | < 0.06 |  | < 0.06 | 2 (≈ 3.98 µM) | > 32 | 32 (≈ 63.7 µM) | > 32 |  |  |  | 0.125 (≈ 0.249 µM) |  | 
N#Cc1ccccc1SC1=C(C(=O)O)N2C(=O)[C@@H](NC(=O)Cc3ccccc3)[C@H]2SC1 [Cmpd 41, (7R)-7-[(Phenylacetyl)amino]-3-(2-cyanophenylthio)-3-cephem-4-carboxylic acid] | < 0.25 | > 32 |  |  | 2 (≈ 4.43 µM) |  | 4 (≈ 8.86 µM) |  | 4 (≈ 8.86 µM) | > 32 | 16 (≈ 35.4 µM) | < 0.25 | < 0.25 |  | 0.06 (≈ 0.133 µM) | 1.13
O=C(Cc1ccccc1)N[C@@H]1C(=O)N2C(C(=O)O)=C(Sc3cccnc3-c3ccccc3)CS[C@H]12 [Cmpd 81, (7R)-7-[(Phenylacetyl)amino]-3-(2-phenylpyridin-3-ylthio)-3-cephem-4-carboxylic acid] | < 0.25 | > 32 |  |  | 1 (≈ 1.99 µM) |  | 2 (≈ 3.97 µM) |  | 4 (≈ 7.94 µM) | > 32 | 16 (≈ 31.8 µM) | < 0.25 | < 0.25 |  | 0.125 (≈ 0.248 µM) | 8.46
O=C(Cc1ccccc1)N[C@@H]1C(=O)N2C(C(=O)O)=C(Sc3ccnn3-c3ccccc3)CS[C@H]12 [Cmpd 87, (7R)-7-[(Phenylacetyl)amino]-3-(1-N-phenylpyrazol-5-ylthio)-3-cephem-4-carboxylic acid] | < 0.25 | > 32 |  |  | 1 to 2 (≈ 2.03 to 4.06 µM) |  | 2 (≈ 4.06 µM) |  | 4 (≈ 8.12 µM) | > 32 | 16 (≈ 32.5 µM) | < 0.25 | < 0.25 |  | 0.06 (≈ 0.122 µM) | 1.89
N#CCC(=O)N[C@@H]1C(=O)N2C(C(=O)O)=C(Sc3ccnn3-c3ccccc3)CS[C@H]12 [Cmpd 88, (7R)-7-[(Cyanoacetyl)amino]-3-(1-N-phenylpyrazol-5-ylthio)-3-cephem-4-carboxylic acid] | < 0.25 | > 32 |  |  | 2 (≈ 4.53 µM) |  | 4 (≈ 9.06 µM) |  | 16 (≈ 36.2 µM) | > 32 | 16 (≈ 36.2 µM) | < 0.25 | < 0.25 |  | 0.25 (≈ 0.566 µM) | 0.31
Nc1nc(/C(=N/OC2CCCC2)C(=O)N[C@@H]2C(=O)N3C(C(=O)O)=C(Sc4ccnn4-c4ccccc4)CS[C@H]23)cs1 [Cmpd 89, (7R)-7-[(Z)-2-(aminothiazol-4-yl)-2-(cyclopentyloxyimino)acetamido]-3-(1-N-phenylpyrazol-5-ylthio)-3-cephem-4-carboxylic acid] | 0.5 (≈ 0.817 µM) | 2 (≈ 3.27 µM) | 0.5 (≈ 0.817 µM) | < 0.25 | 4 (≈ 6.54 µM) | < 0.25 | 2 (≈ 3.27 µM) |  | 4 (≈ 6.54 µM) | 8 (≈ 13.1 µM) | 8 (≈ 13.1 µM) |  |  |  | 0.5 (≈ 0.817 µM) | > 10
